This is an account of results in EP0569598A1, “BENZOXAZINONE DERIVATIVE” (JAPAN TOBACCO INC., priority 1991, dated 1993).

The target of the experiment is T1, human leukocyte elastase (HLE) (Homo sapiens, UniProt P08246).
T1 construct: the mixed solution was subjected to density gradient centrifugation, thereby obtaining neutrophiles; from tissue; host or cells: neutrophils from human vein blood (buffy coat)
T1 sequence (P08246 30-247 limits assumed): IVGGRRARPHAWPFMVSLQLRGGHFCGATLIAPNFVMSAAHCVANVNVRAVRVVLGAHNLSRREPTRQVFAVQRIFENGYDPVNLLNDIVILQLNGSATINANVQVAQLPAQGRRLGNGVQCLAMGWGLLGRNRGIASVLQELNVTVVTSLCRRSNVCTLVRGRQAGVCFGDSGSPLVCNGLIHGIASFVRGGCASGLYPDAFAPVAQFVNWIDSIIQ
The experiment can be described thus: HLE inhibitory activity (synthetic substrate, pNA release, absorbance 405 nm). The experiment is classed as biochemical. The following applies: pH 8.6; HLE 5.63 nM, substrate 0.2625 mM; 37°C; read-out: IC₅₀ value HLE. As for the experimental part:
Activities of the Benzoxazine derivatives of the present invention against human leukocyte elastase (HLE), human sputum elastase (HSE), human cathepsin G (HCG), bovine pancreatic α-chmotrypsin (CYT) and bovine pancreatic trypsin (TRY) were measured by the following method.
A buffy coat was obtained by subjecting human vein blood to centrifugation. To the buffy coat was added distilled water to make a hypotonic solution, thereby bursting erythrocytes. To the residual blood cell component was added a 33.4% of Conrey 400 solution/9% Ficoll solution (the ratio of the former solution to the latter solution is 10:24), and the mixed solution was subjected to density gradient centrifugation, thereby obtaining neutrophiles. The neutrophile fraction was washed with Hanks' buffer for three times and then cells were recovered and cryopreserved at -80°C until use. The cryopreserved-cells were thawed with warm water at 37°C and suspended in a 9-fold volume of lysis buffer containing 0.1M Tris-HCl (pH7.5), 1M MgCl₂ and 0.1% Brij 35. The suspended cells are destroyed by means of polotoron with ice-cooling. The cell suspension was subjected to centrifugation at 100,000 x g for 1 hour. After removing precipitates, 2-fold volume of a Tris-HCl buffer containing 5 mM Tris-HCl(pH 7.5), 1M NaCl and 1.1% Brij 35 was added to the supernatant, thereby obtaining a crude solution of an enzyme extract. The crude solution was subjected to aprotinine affinity column and extracted with an elution buffer containing […] of glycine-HCl (pH 3.3), 1M NaCl and 0.1% Brij 35, thereby obtaining an active fraction. The obtained active fraction was further subjected to MONO S-ion-exchange chromatography and eluted with 2M NaCl linear gradient. The obtained fraction was dialyzed against 25 mM Tris-HCl (pH8.6) and lyophilized, thereby obtained an enzyme sample.
A test compound was dissolved in DMSO (for fluorometry) and prepared various concentration of the solution. To each concentration was added 2-fold volume of 0.2M Tris-HCl (pH8.6), thereby obtaining a test solution. Synthetic substrate (Funakoshi, L-1335) was dissolved in DMSO and 2-volume of 0.2M Tris-HCl (pH8.6) was added thereto, thereby obtaining a substrate solution. The reaction was performed using a microplate having 96 wells (Nunk). Six-time reactions were repeated for each concentration. One handred and forty µl of an enzyme solution containing 0.2M Tris-HCl (pH8.6), 30 µl of a test solution and 30 µl of a substrate solution per well of the microplate were respectively pre-incubated at 37°C for 10 minutes. After completion of the incubation, the enzyme solution was mixed with the test sample and incubated for 10 minutes and then the substrate solution was added to perform an enzyme reaction. The absorbance of released P-nitroanilide (PNA) was measured at the wave length of 405 nm by means of a microplate reader (MTP-100; CORONA), thereby determining the substrate decomposition. The rate of the substrate decomposition was shown as an average value of 6 repeated reactions. The inhibitory concentration of a test compound relative to the amount of the substrate decomposition in the reaction mixture without a test compound was regarded as an IC₅₀ value. The final concentration of HLE and a synthesized substrate in the reaction mixture were 5.63 nM and 0.2625 mM, respectively.

pIC50: −log10 of the molar value.

On to `Cc1cccc2nc([C@@H](NC(=O)CON=C(c3ccccc3)c3ccccn3)C(C)C)oc(=O)c12` [Compound 9, 5-Methyl-2-[2-methyl-1(S)-[[[[[phenyl(2-pyridyl)methylene]amino]oxy]acetyl]amino]propyl]-4H-3,1-benzoxazin-4-one], for which the pIC50 is 6.26.
In the case of `Cc1cccc2nc([C@@H](NC(=O)CN(c3ccccc3)c3ccccc3)C(C)C)oc(=O)c12` [Compound 7, 2-{1(S)-[(N,N-diphenyl-glycyl)amino]-2-methylpropyl}-5-methyl-4H-3,1-benzoxazin-4-one], the pIC50 was 6.10.
For the molecule `Cc1cccc2nc([C@@H](NC(=O)COC(c3ccccn3)c3ccccn3)C(C)C)oc(=O)c12` [Compound 4], the pIC50 is 6.26.
Regarding `Cc1cccc2nc([C@@H](NC(=O)CCC(c3ccccc3)c3ccccc3)C(C)C)oc(=O)c12` [Compound 8, 2-{1(S)-[(4,4-diphenylbutyryl)amino]-2-methylpropyl}-5-methyl-4H-3,1-benzoxazin-4-one], the pIC50 was 6.40.
